Reference: patent US6528494B2 (priority 1996, dated 2003)

Tests used:
Type in all cases: cell-based
[1] = biological target: adenosine 2a receptor (Homo sapiens, UniProt P29274); test: Agonist activity against adenosine 2a receptor (CHO cells, cAMP/SPAP reporter); conditions: CHO cells transfected with human receptor; basal cAMP via SPAP; mean of all the versions tested
Method: (§1) (1) Agonist activity against adenosine 2a, adenosine 1 and adenosine 3 receptor subtypes.
(§2) The effect of test compounds was determined by their effects on basal levels of cAMP (A2a) or on forskolin-enhanced cAMP (A1 and A3) as reflected by changes in levels of SPAP.

[2] = biological target: T1, adenosine 1 receptor (Homo sapiens, UniProt P30542); test: Agonist activity against adenosine 1 receptor (CHO cells, forskolin-enhanced cAMP/SPAP reporter); conditions: CHO cells transfected with human receptor; forskolin-enhanced cAMP via SPAP; mean of all the versions tested
T1 sequence (P30542 1-326): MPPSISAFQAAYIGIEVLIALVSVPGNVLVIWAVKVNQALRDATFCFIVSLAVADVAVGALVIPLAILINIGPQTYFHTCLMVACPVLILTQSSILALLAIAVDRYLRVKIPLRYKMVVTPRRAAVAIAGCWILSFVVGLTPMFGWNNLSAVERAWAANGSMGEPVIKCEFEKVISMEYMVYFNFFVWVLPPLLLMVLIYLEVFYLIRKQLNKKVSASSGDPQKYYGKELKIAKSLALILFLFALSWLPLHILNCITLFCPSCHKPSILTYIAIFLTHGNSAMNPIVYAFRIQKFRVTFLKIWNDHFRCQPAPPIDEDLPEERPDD
Method: as §1, §2

[3] = biological target: T2, adenosine 3 receptor (Homo sapiens, UniProt P0DMS8); test: Agonist activity against adenosine 3 receptor (CHO cells, forskolin-enhanced cAMP/SPAP reporter); conditions: CHO cells transfected with human receptor; forskolin-enhanced cAMP via SPAP; mean of all the versions tested
T2 sequence (P0DMS8 1-318): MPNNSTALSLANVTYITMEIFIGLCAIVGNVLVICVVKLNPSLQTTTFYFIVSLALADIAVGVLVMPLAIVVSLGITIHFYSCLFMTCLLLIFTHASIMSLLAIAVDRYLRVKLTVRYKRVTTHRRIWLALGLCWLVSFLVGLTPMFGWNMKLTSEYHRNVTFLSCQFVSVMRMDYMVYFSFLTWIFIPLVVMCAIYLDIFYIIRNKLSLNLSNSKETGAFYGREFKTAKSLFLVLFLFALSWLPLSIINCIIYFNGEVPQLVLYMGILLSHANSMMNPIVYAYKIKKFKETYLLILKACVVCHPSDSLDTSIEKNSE
Method: as §1, §2

Sequence of adenosine 2a receptor (P29274 whole entry): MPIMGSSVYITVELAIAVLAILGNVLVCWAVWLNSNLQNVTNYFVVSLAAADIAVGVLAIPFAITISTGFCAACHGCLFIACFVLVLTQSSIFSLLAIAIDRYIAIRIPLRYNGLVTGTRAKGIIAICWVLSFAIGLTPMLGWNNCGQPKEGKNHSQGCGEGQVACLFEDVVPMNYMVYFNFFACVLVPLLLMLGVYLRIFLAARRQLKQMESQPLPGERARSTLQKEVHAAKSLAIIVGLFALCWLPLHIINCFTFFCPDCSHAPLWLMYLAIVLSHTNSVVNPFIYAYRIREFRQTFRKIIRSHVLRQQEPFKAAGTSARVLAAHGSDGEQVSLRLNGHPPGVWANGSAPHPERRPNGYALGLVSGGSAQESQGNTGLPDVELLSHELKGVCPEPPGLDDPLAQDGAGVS

Row | Compound | A2a EC50 as a ratio of that of NECA [1] | A1 EC50 as a ratio of that of NECA [2] | A3 EC50 as a ratio of that of NECA [3]
1 | (2R,3R,4S,5R)-2-[2-(1-Benzyl-pyrrolidin-3-ylamino)-6-cyclopentylamino-purin-9-yl]-5-(2-ethyl-2H-tetrazol-5-yl)-tetrahydro-furan-3,4-diol bis(Formate) [Example 66] | 1.53 | 48.60 | >158
2 | CCn1nnc([C@H]2O[C@@H](n3cnc4c(NCC(c5ccccc5)c5ccccc5)nc(NC5CCSCC5)nc43)[C@H](O)[C@@H]2O)n1.O=C(O)C(F)(F)F [Example 114] | 0.58 | 242.2 | >2972.0
3 | COc1ccc(CCNc2nc(N)c3ncn([C@@H]4O[C@H](c5nnn(C(C)C)n5)[C@@H](O)[C@H]4O)c3n2)cc1OC.O=CO [Example 42, (2R,3R,4S,5R)-2-{6-Amino-2-[2-(3,4-dimethoxy-phenyl)-ethylamino]-purin-9-yl}-5-(2-isopropyl-2H-tetrazol-5-yl)-tetrahydro-furan-3,4-diol Formate] | 0.63 | 414.9 | >413
4 | Cn1cnc(CCNc2nc(NCc3ccccc3)c3ncn([C@@H]4O[C@H](c5nnn(C)n5)[C@@H](O)[C@H]4O)c3n2)c1.O=CO [Example 30, (2R,3R,4S,5R)-2-{6-Benzylamino-2-[2-(1-methyl-1H-imidazol-4-yl)-ethylamino]-purin-9-yl}-5-(2-methyl-2H-tetrazol-5-yl)-tetrahydro-furan-3,4-diol Formate] | 0.43 | >7976 | >105
5 | CCn1nnc([C@H]2O[C@@H](n3cnc4c(N)nc(NCCNc5ccccn5)nc43)[C@H](O)[C@@H]2O)n1.O=C(O)C(F)(F)F [Example 55, (2R,3R,4S,5R)-2-{6-Amino-2-[2-(pyridin-2-ylamino)-ethylamino)-purin-9-yl}-5-(2-ethyl-2H-tetrazol-5-yl)-tetrahydro-furan-3,4-diol Trifluoroacetate] | 5.77 | 1136.00 | >435
6 | CCn1nnc([C@H]2O[C@@H](n3cnc4c(N)nc(NCCc5ccc(N)cc5)nc43)[C@H](O)[C@@H]2O)n1.O=CO [Example 14, (2R,3R,4S,5R)-2-{6-Amino-2-[2-(4-amino-phenyl)-ethylamino]-purin-9-yl}-5-(2-ethyl-2H-tetrazol-5-yl)-tetrahydro-furan-3,4-diol Formate] | 0.55 | 181.1 | >209
7 | CCn1nnc([C@H]2O[C@@H](n3cnc4c(NCC(c5ccccc5)c5ccccc5)nc(NCCc5cccc(N)n5)nc43)[C@H](O)[C@@H]2O)n1.O=C(O)C(F)(F)F.O=C(O)C(F)(F)F.O=C(O)C(F)(F)F [Example 22, (2R,3R,4S,5R)-2-[2-[2-(6-Amino-pyridin-2-yl)-ethylamino]-6-(2,2-diphenyl-ethylamino)-purin-9-yl]-5-(2-ethyl-2H-tetrazol-5-yl)-tetrahydro-furan-3,4-diol tris(Trifluoroacetate)] | 0.67 | 86.4 | >188
8 | CC(C)n1nnc([C@H]2O[C@@H](n3cnc4c(NCCC(C)(C)C)nc(NCCc5cn(C)cn5)nc43)[C@H](O)[C@@H]2O)n1.O=CO [Example 56, (2R,3R,4S,5R)-2-{6-(3,3-Dimethyl-butylamino)-2-[2-(1-methyl-1H-imidazol-4-yl)-ethylamino]-purin-9-yl}-5-(2-isopropyl-2H-tetrazol-5-yl)-tetrahydro-furan-3,4-diol Formate] | 4.90 | 570.90 | >297

Now from value to compound:

Row | A2a EC50 as a ratio of that of NECA [1] | A1 EC50 as a ratio of that of NECA [2] | A3 EC50 as a ratio of that of NECA [3] | Compound
9 | 1.27 | 89.10 | >233 | Cn1nnc(C2OC(n3cnc4c(NC(CO)Cc5ccccc5)nc(NCCN5CCCCC5)nc43)C(O)C2O)n1 [Example 107, (2R,3R,4S,5R)-2-[6-(1S-Hydroxymethyl-2-phenyl-ethylamino)-2-(2-piperidin-1-yl-ethylamino)-purin-9-yl]-5-(2-methyl-2H-tetrazol-5-yl)-tetrahydro-furan-3,4-diol bis(Formate)]
10 | 0.8 | 159 | >336 | CCn1nnc(C2OC(n3cnc4c(NCc5cccc(I)c5)nc(NC5CCNC5)nc43)C(O)C2O)n1 [Example 23, (2R,3S,4R,5R)-2-(2-Ethyl-2H-tetrazol-5-yl)-5-[6-(3-iodo-benzylamino)-2-(pyrrolidin-3R-ylamino)-purin-9-yl]-tetrahydro-furan-3,4-diol Diformate]
11 | 2.22 | >9363.00 | >243 | CCC(CC)Nc1nc(NCCc2ccccn2)nc2c1ncn2C1OC(c2nnn(C)n2)C(O)C1O.O=CO.O=CO [Example 89, (2R,3R,4S,5R)-2-[6-(1-Ethyl-propylamino)-2-(2-pyridin-2-yl-ethylamino)-purin-9-yl]-5-(2-methyl-2H-tetrazol-5-yl)-tetrahydro-furan-3,4-diol Diformate]
12 | 0.149 | 205.4 | >244 | CCn1nnc([C@H]2O[C@@H](n3cnc4c(NCCc5ccccc5)nc(NCCc5cn(C)cn5)nc43)[C@H](O)[C@@H]2O)n1.Cl.Cl [Example 4, (2R,3S,4R,5R)-2-(2-Ethyl-2H-tetrazol-5-yl)-5-{2-[2-(1-methyl-1H-imidazol-4-yl)-ethylamino]-6-phenethylamino-purin-9-yl}-tetrahydro-furan-3,4-diol Dihydrochloride]
13 | 1.40 | 121.50 | >174 | CCn1nnc(C2OC(n3cnc4c(NCCc5ccccc5)nc(NC5CCN(Cc6ccccc6)C5)nc43)C(O)C2O)n1.O=CO.O=CO [Example 75, (2R,3R,4S,5R)-2-[2-(1-Benzyl-pyrrolidin-3-ylamino)-6-phenethylamino-purin-9-yl]-5-(2-ethyl-2H-tetrazol-5-yl)-tetrahydro-furan-3,4-diol bis(Formate)]
14 | 3.30 | 101.30 | >200 | CCn1nnc(C2OC(n3cnc4c(NCc5cccc(I)c5)nc(NC5CCN(Cc6ccccc6)C5)nc43)C(O)C2O)n1.O=CO.O=CO [Example 77, (2R,3R,4S,5R)-2-[2-(1-Benzyl-pyrrolidin-3-ylamino)-6-(3-iodo-benzylamino)-purin-9-yl]-5-(2-ethyl-2H-tetrazol-5-yl)-tetrahydro-furan-3,4-diol bis(Formate)]
15 | 3.28 | 158.70 | >214 | CCn1nnc([C@H]2O[C@@H](n3cnc4c(NCCc5ccccc5)nc(NCCN5CCOCC5)nc43)[C@H](O)[C@@H]2O)n1 [Example 49, (2R,3S,4R,5R)-2-(2-Ethyl-2H-tetrazol-5-yl)-5-[2-(2-morpholin-4-yl-ethylamino)-6-phenethylamino-purin-9-yl]-tetrahydro-furan-3,4-diol]
16 | 2.34 | 1413.00 | >240 | Cn1nnc(C2OC(n3cnc4c(NCC(c5ccccc5)c5ccccc5)nc(NCCc5ccccn5)nc43)C(O)C2O)n1.O=CO.O=CO (stereo not drawn) [Example 97]
